US12286401B2, “Small molecules that sensitize HIV-1 infected cells to antibody dependent cellular cytotoxicity” (THE TRUSTEES OF THE UNIVERSITY OF PENNSYLVANIA, priority 2018, dated 2025)

Legend:
[1] = tested on: HIV-1JR-FL EnvΔCT expressed at the surface of HOS cells; experiment: Cell-based ELISA (CBE), 17b readout; details: MCG analogs 50 μM; BNM-III-170 5 μM; 2G12 and DMSO normalized
Description: Detection of trimeric HIV-1 Env at the surface of HOS cells was performed by cell-based ELISA, as described in Desormeaux, “The highly conserved layer-3 component of the HIV-1 gp120 inner domain is critical for CD4-required conformational transitions,” J. Virol. 87:2549-2562; Alsahafi, “Effects of the I559P gp41 change on the conformation and function of the human immunodeficiency virus (HIV-1) membrane envelope glycoprotein trimer,” 2015, PLoS One 10:e0122111; and Veillette, “Conformational evaluation of HIV-1 trimeric envelope glycoproteins using a cell-based ELISA assay,” 2014, J. Vis. Exp., 91:51995. To enhance cell-surface expression of HIV-1 EnvRF a stop codon was introduced to replace the codon for Gly 711, truncating the cytoplasmic tail (ACT). Briefly, HOS cells were seeded in T-75 flasks (3×10^6 cells per flask) and transfected the next day with 22.5 μg of Env-expressing plasmids (wild-type and mutants S375W, S375T, H66A, A582T/L587A, etc) using the standard polyethylenimine (PEI, Polyscience Inc, PA, USA) transfection method. Twenty-four hours after transfection, cells were plated in 384-wells plates (2×10^4 cells per well). One day later, cells were washed twice with blocking buffer (10 mg/mL non-fat dry milk, 1.8 mM CaCl2), 1 mM MgCl2, 25 mM Tris, pH 7.5 and 140 mM NaCl) and then incubated for 30 minutes at room temperature with different concentrations of MCG analogs or equivalent volume of vehicle (DMSO). Cells were then incubated for an additional 1 h at room temperature with anti-HIV-1 Env monoclonal antibodies recognizing CD4-induced gp120 epitopes (17b, A32), CD4-binding site gp120 epitopes (VRC03, VRC01, F105, and b12), gp120 V3 glycans (19b, PGT126, PGT122, and 10.1074), gp120 outer domain (2G12), and gp120-gp41 interface (PGT151 and VRC34) epitopes. All ligands were diluted in blocking buffer. A horseradish peroxidase-conjugated antibody specific for the Fc region of human or mouse IgG (Pierce) was then incubated with the samples for 45 minutes at room temperature. For all conditions, cells were washed 5 times with blocking buffer and 5 times with washing buffer (1.8 mM CaCl2), 1 mM MgCl2, 25 mM Tris, pH 7.5 and 140 mM NaCl). HRP enzyme activity was determined after the addition of 20 μl per well of a 1:1 mix of Western Lightning oxidizing and luminol reagents (Perkin Elmer Life Sciences). Light emission was measured with an LB 941 TriStar luminometer (Berthold Technologies) and analysis with Graph Pad software.
The data of Table 2 is given as the fold over BNM-III-170 (5 μM) of Cell-Based ELISA with MCG Analogs (50 μM)—17b readout, 2G12 and DMSO normalized.
To identify molecules able to expose vulnerable Env epitopes, a cell-based ELISA (CBE) assay was adapted, capable of measuring conformational changes of membrane-bound trimeric Env as described in Veillette, 2014, J. Vis. Exp. doi:10.3791/51995:51995; Haim, 2011, PLoS Pathog 7:e1002101, into a high-throughput screening (HTS) platform (FIG. 10A). Briefly, the cytoplasmic-tail deleted HIV-1JR-FL Tier-2/3 Env was expressed on the surface of HOS cells in a 384-well-plate format. The cytoplasmic tail of Env was deleted to enhance Env expression at the cell surface and therefore enhance the sensitivity of the CBE assay. See, Veilette and Haim, 2009, PLoS Pathog 5:e100036. Small molecules or, as a positive control, soluble (sCD4) were added to expose the HIV-1JR-FL EnvΔCT epitope that can be recognized by the CD4i antibody 17b. See, Wyatt, 1995, J. Virol. 69:5723-5733; Rizzuto, 1998, Science 280:1949-1953.
17b binding was detected by a horseradish peroxidase-conjugated (HRP) second antibody, and HRP enzyme activity was measured by Western Lightning oxidizing and luminal reagents. 17b binding in the presence of sCD4 was set as the control (FIG. 10B, blue dots), small molecules that enhanced 17b binding above 25% of the one induced by sCD4 were retested in quadruplicate and only one molecule (UM0059920) was deemed a true positive (FIG. 10B, red dots). […]

[2] = tested on: CH58TF infected primary CD4+ T-cells; experiment: HIV+ patient sera/plasma recognition of CH58TF infected primary CD4+ T-cells (flow cytometry cell-surface staining); assay type: cell-based, HIV-1; details: Human immunodeficiency virus 1, T-cell, read-out: Fold Over DMSO (patient sera, n = 3)
Description: (§1) Cell-surface staining of primary CD4+ T cells from healthy HIV uninfected individuals or CEM-NKr cells is performed, as described in Prevost, “Influence of the Envelope gp120 Phe 43 Cavity on HIV-1 Sensitivity to Antibody-Dependent Cell-Mediated Cytotoxicity Responses,” 2017, J. Virol 91; Richard, “CD4 mimetics sensitize HIV-1-infected cells to ADCC,” 2015, Proc. Natl. Acad. Sci. USA, 112:E2687-2694; Richard, “Small CD4 Mimetics Prevent HIV-1 Uninfected Bystander CD4+ T Cell Killing Mediated by Antibody-dependent Cell-mediated Cytotoxicity,” 2016, EBioMedicine 3:122-134; Veillette, “The HIV-1 gp120 CD4-Bound Conformation Is Preferentially Targeted by Antibody-Dependent Cellular Cytotoxicity-Mediating Antibodies in Sera from HIV-1-Infected Individuals,” 2015, J. Virol., 89:545-551; Veillette, “Interaction with cellular CD4 exposes HIV-1 envelope epitopes targeted by antibody-dependent cell-mediated cytotoxicity,” 2014, J. Virol., 88:2633-2644; Richard, “Uninfected Bystander Cells Impact the Measurement of HIV-Specific Antibody-Dependent Cellular Cytotoxicity Responses,” 2018, MBio. 9(2): e00358-18; Richard, “BST-2 Expression Modulates Small CD4-Mimetic Sensitization of HIV-1-Infected Cells to Antibody-Dependent Cellular Cytotoxicity,” 2017, J. Virol. 91(11):e00219-17. Binding of HIV-1 infected cells by HIV+ sera (1:1000 dilution) or anti-Env Abs (such as 17b) is performed […] in vitro infection at 37° C. in presence of different concentrations of the MCG analogs or with equivalent volume of vehicle (DMSO). Cells infected with HIV-1 primary isolates are stained intracellularly for HIV-1 p24 using the Cytofix/Cytoperm Fixation/Permeabilization Kit (BD Biosciences, Mississauga, ON, Canada) and then fluorescent anti-p24 mAb (PE-anti-p24, clone KC57; Beckman Coulter/Immunotech, Hialeah, FL) (1:100 final concentration). The percentage of infected cells (p24^+ or GFP+ cells) is determined by gating the living cell population based on the viability dye staining. Samples are analyzed on an LSRII cytometer (BD Biosciences, Mississauga, ON, Canada) and data analysis is performed using FlowJo vX0.7 (Tree Star, Ashland, OR, USA).
HIV+ Patient Sera (n=3) Recognition of CH58TF Infected Primary CD4+ T-Cells
Staining with patient sera and 50 μM of compounds given as a fold change over DMSO (vehicle).
(§2) Briefly, Primary CD4 T cells isolated from PBMC were infected with HIV-1CH58TF for 48 hours. For cell surface staining, 5 μg/ml 17b (FIG. 15A) or 1:1000 diluted HIV+ plasma (n=15) (FIG. 15B) were used in the presence of the different MCG analogs (50 μM), (+)-BNM-III-170 or with an equivalent volume of vehicle (DMSO). An Alexa Fluor 647-conjugated anti-human IgG secondary Ab was then used for fluorescent labeling. For ADCC (FIG. 15C), infected cells were used as target cells in a FACS-based ADCC assay that measures the killing of infected (p24+ cells). See, Madani, 2016, J. Virol., 90:5031-5046. The assay determines susceptibility to ADCC mediated by a 1/1,000 dilution of plasma from 15 HIV-1-infected individuals in the presence of the different MCG analogs (50 μM), (+)-BNM-III-170 (50 μM) or with an equivalent volume of vehicle (DMSO). Correlation between cell-surface staining with HIV+ plasma and ADCC was calculated using the Spearman rank correlation (FIG. 15D).

[3] = tested on: CH58TF infected primary CD4+ T-cells; experiment: Recognition of HIV-1 infected cells by 17b (flow cytometry cell-surface staining); assay type: cell-based; details: Human immunodeficiency virus 1, T-cell, read-out: Fold Over DMSO (17b, n = 1)
Description: as §1, §2

Row | Compound | Fold over BNM-III-170 - 17b binding (±0.05) [1] [fold] | fold induction at 50 µM [2] | fold induction at 50 µM [3]
1 | O=C(Nc1ccc(F)c(Cl)c1)[C@H]1CCCN(S(=O)(=O)c2ccccc2)C1 [(S)-MCG-III-085-D02] | 0.18 | 1.37 | 2.54
2 | Cn1cnc(S(=O)(=O)N2CC(C(=O)Nc3ccc(Cl)c(F)c3)Cc3ccccc32)c1 (stereo not shown) [MCG-III-214-A04] | 0.18 | 0.924 | 1.15
3 | O=C(Nc1ccc(Cl)c(F)c1)C1CN(S(=O)(=O)c2ccccc2)CCO1 (stereo not shown) [MCG-III-211-A03] | 0.28 | 1.7 | 2.64
4 | O=C(Nc1ccc(F)c(F)c1)[C@H]1CCCN(S(=O)(=O)c2ccccc2)C1 [(S)-MCG-III-085-D04] | 0.28 | 1.84 | 3.15
5 | O=C(Nc1ccc(Cl)c(F)c1)[C@H]1CCCN(S(=O)(=O)c2cccnc2)C1 [(S)-MCG-III-116-A01] | 0.41 | 2.15 | –
6 | N#Cc1ccc(S(=O)(=O)N2CCC[C@H](C(=O)Nc3ccc(Cl)c(F)c3)C2)cc1 [(S)-MCG-III-116-A06] | 0.31 | 1.15 | –
7 | COc1ccc(S(=O)(=O)N2CCC[C@H](C(=O)Nc3ccc(Cl)c(F)c3)C2)cc1 [(S)-MCG-III-116-A05] | 0.29 | 1.1 | –
8 | O=C(Nc1ccc(Cl)c(F)c1)C1Cc2ccccc2N(S(=O)(=O)c2ccccc2)C1 (stereo not shown) [MCG-III-214-A03] | 0.09 | 1.05 | 0.911
9 | CC(=O)Nc1ccc(S(=O)(=O)N2CCC[C@H](C(=O)Nc3ccc(Cl)c(F)c3)C2)cc1 [(S)-MCG-III-117] | 0.21 | 1.89 | –
10 | O=C(Oc1ccc(Cl)c(F)c1)[C@H]1CCCN(S(=O)(=O)c2ccccc2)C1 [(S)-MCG-III-213-A03] | 0.05 | 1.08 | 0.928
11 | O=C(Nc1ccc(Cl)c(Br)c1)[C@H]1CCCN(S(=O)(=O)c2ccccc2)C1 [(S)-MCG-III-085-D05] | 0.10 | 1.55 | 5.58
12 | CS(=O)(=O)N1CCCC(NC(=O)c2ccc(Cl)c(F)c2)C1 (stereo not shown) [MCG-III-157-C01] | 0.08 | 1.04 | –
13 | O=C(Nc1ccc(Cl)c(Cl)c1)[C@H]1CCCN(S(=O)(=O)c2ccccc2)C1 [(S)-MCG-III-085-D03] | 0.20 | 2.03 | 4.87
14 | O=C(Nc1ccc(Cl)c(F)c1)[C@H]1CCCN(S(=O)(=O)c2ccc(Br)cc2)C1 [(S)-MCG-III-128] | 0.21 | 1.07 | –
15 | O=C(Nc1ccc(Cl)c(F)c1)[C@H]1CCCN(S(=O)(=O)c2ccccc2)C1 [(S)-MCG-III-085-D01] | 0.45 | 5.95 | 6.4
16 | CCS(=O)(=O)N1CCCC(C(=O)Nc2ccc(Cl)c(F)c2)C1 (stereo not shown) [MCG-III-157-B02] | 0.68 | 2.62 | –
17 | O=C(Nc1ccc(Br)c(Cl)c1)[C@H]1CCCN(S(=O)(=O)c2ccccc2)C1 [(S)-MCG-III-085-D06] | 0.19 | 2 | 6.46
18 | O=C(Nc1ccc(Cl)c(F)c1)[C@H]1CCCN(C(=O)Oc2ccccc2)C1 [(S)-MCG-III-188-A03] | 0.47 | 4.61 | 3.11
19 | CCS(=O)(=O)N1CCC[C@H](C(=O)Nc2ccc(Br)c(Cl)c2)C1 [(S)-MCG-III-085-C06] | 0.34 | 1.28 | 3.1
20 | O=C(Nc1ccc(Cl)c(F)c1)C1CCN(S(=O)(=O)c2ccccc2)C1 (stereo not shown) [MCG-III-157-A03] | 0.33 | 1.57 | –
